The source of these data is US20250388589A1, “TRICYCLIC HETEROCYCLIC DERIVATIVES, COMPOSITIONS AND USES THEREOF” (Danatlas Pharmaceuticals Co., Ltd., priority 2022, published 2025).

Experiment [1] addresses hPARG (C-terminal His6-tag) (Homo sapiens (Human), UniProt Q86W56). Briefly: PARG Enzymatic Activity Assay (HTRF). In kind it is biochemical. As to conditions: hPARG 65 pM final, biotinylated-NAD ribosylated PARP1 8 nM final. The essentials:
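E. coli-expressed enzyme (65 pM final) preincubated 60 min RT with compounds (10-point 4-fold dilution, duplicate) in 50 mM Tris pH 7.4, 3 mM EDTA, 1 mM DTT, 50 mM KCl, 0.01% Tween 20. Biotinylated-NAD ribosylated PARP1 substrate (8 nM final) reacted 10 min RT; Eu-streptavidin/anti-6HIS-XL665 HTRF read 665/620 nm after 60 min. IC50 from 4-parameter Hill fit.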
(In general: TR-FRET usually uses a lanthanide donor and a delayed reading to cut background.)

Experiment [2] deals with Kuramochi cell line. Briefly: Cell Viability Assay (Cell Titer-Glo, 7 days). In kind it is cell-based. As to conditions: 168 h, Kuramochi cells, 7 days incubation, read-out: PARG Cell viability (IC50). The essentials:
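Kuramochi cells in RPMI with 10% FBS, seeded at 400 cells/well, were treated with a 9-point 3-fold dilution series in duplicate for 7 days at 37 °C, 5% CO2. Viability by CellTiter-Glo luminescence, normalised to DMSO and medium-only controls; IC50 from 4-parameter Hill fit.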
For orientation: In ATP-based viability assays light output follows the ATP content of the culture.

Chain of hPARG (C-terminal His6-tag) (Q86W56 whole entry): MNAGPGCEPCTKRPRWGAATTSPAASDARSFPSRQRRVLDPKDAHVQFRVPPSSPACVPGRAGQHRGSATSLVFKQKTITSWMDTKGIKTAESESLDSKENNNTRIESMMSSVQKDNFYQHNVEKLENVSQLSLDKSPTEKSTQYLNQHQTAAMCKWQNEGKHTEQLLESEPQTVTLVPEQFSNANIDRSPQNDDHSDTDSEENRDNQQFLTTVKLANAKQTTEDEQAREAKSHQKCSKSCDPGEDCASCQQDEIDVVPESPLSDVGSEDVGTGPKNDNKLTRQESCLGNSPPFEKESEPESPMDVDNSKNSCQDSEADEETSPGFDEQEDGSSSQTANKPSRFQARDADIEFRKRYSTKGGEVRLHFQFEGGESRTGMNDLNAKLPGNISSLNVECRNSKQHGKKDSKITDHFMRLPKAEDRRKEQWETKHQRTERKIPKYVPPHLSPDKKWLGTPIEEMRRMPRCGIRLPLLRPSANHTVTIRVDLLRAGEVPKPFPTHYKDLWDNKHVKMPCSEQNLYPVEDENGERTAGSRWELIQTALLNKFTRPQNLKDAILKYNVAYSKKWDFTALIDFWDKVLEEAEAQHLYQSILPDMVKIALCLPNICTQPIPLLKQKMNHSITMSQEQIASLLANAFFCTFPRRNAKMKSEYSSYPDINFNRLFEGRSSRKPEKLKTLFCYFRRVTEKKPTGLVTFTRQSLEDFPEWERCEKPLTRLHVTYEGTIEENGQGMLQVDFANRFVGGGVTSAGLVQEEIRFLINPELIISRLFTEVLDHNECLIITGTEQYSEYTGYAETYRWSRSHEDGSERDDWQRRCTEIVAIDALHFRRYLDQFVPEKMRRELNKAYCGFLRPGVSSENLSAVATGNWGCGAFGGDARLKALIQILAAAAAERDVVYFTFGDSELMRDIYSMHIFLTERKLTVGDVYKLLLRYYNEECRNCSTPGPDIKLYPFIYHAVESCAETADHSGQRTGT

As to `CC1(NS(=O)(=O)c2ccc3c4c(N5CCN(C(=O)C6CC6)CC5)ncnc4n(-c4nnc(C(F)F)s4)c3c2)CC1` [Example 1, 4-(4-(Cyclopropanecarbonyl)piperazin-1-yl)-9-(5-(difluoromethyl)-1,3,4-thiadiazol-2-yl)-N-(1-methylcyclopropyl)-9H-pyrimido[4,5-b]indole-7-sulfonamide], the values for the IC50 in experiment [1] and in experiment [2] were less than 100 nM and 100 to 1000 nM, respectively.

As to `N#CC1(NS(=O)(=O)c2ccc3c4c(N5CCC(O)(C(F)(F)F)CC5)ncnc4n(-c4nnc(C(F)F)s4)c3c2)CC1` [Example 191, N-(1-Cyanocyclopropyl)-9-(5-(difluoromethyl)-1,3,4-thiadiazol-2-yl)-4-(4-hydroxy-4-(trifluoromethyl)piperidin-1-yl)-9H-pyrimido [4,5-b]indole-7-sulfonamide], the IC50 in experiment [1] and in experiment [2] was less than 100 nM in each case.

For the molecule `CN(C)C(=O)c1ccc(-c2ncnc3c2c2ccc(S(=O)(=O)NC4(C#N)CC4)cc2n3-c2nnc(C(F)F)s2)cc1` [Example 43, 4-(7-(N-(1-Cyanocyclopropyl)sulfamoyl)-9-(5-(difluoromethyl)-1,3,4-thiadiazol-2-yl)-9H-pyrimido[4,5-b]indol-4-yl)-N,N-dimethylbenzamide], the IC50 (usually the concentration needed to halve the response being measured) in experiment [1] was less than 100 nM; in experiment [2], 100 to 1000 nM.

As to `C[C@@H](O)C(=O)N1CCC(c2ncnc3c2c2ccc(S(=O)(=O)NC4(C#N)CC4)cc2n3-c2nnc(C(F)F)s2)CC1` [Example 107, (R)-N-(1-Cyanocyclopropyl)-9-(5-(difluoromethyl)-1,3,4-thiadiazol-2-yl)-4-(1-(2-hydroxypropanoyl)piperidin-4-yl)-9H-pyrimido[4,5-b]indole-7-sulfonamide], the IC50 in experiment [1] and in experiment [2] was less than 100 nM in each case.

Consider `CCN1CCN(c2ncnc3c2c2ccc(S(=O)(=O)NC4(C#N)CC4)cc2n3-c2nnc(C(F)F)s2)C[C@@H]1C` [Example 163, (S)-N-(1-cyanocyclopropyl)-9-(5-(difluoromethyl)-1,3,4-thiadiazol-2-yl)-4-(4-ethyl-3-methylpiperazin-1-yl)-9H-pyrimido[4,5-b]indole-7-sulfonamide], for which the IC50 was 100 to 1000 nM in experiment [1] and less than 100 nM in experiment [2].

For `Cc1ccc(C(=O)N2CCN(c3ncnc4c3c3ccc(S(=O)(=O)NC5(C#N)CC5)cc3n4-c3nnc(C(F)F)s3)CC2)cn1` [Example 27, N-(1-Cyanocyclopropyl)-9-(5-(difluoromethyl)-1,3,4-thiadiazol-2-yl)-4-(4-(6-methylnicotinoyl)piperazin-1-yl)-9H-pyrimido[4,5-b]indole-7-sulfonamide], the concentration for half-maximal inhibition (IC50) in experiment [1] is less than 100 nM; in experiment [2] it was 100 to 1000 nM.

In the case of `COC1(C(F)(F)F)CCN(c2ncnc3c2c2ccc(S(=O)(=O)NC4(C#N)CC4)cc2n3-c2nnc(C(F)F)s2)CC1` [Example 47, N-(1-Cyanocyclopropyl)-9-(5-(difluoromethyl)-1,3,4-thiadiazol-2-yl)-4-(4-methoxy-4-(trifluoromethyl)piperidin-1-yl)-9H-pyrimido[4,5-b]indole-7-sulfonamide], the IC50 is less than 100 nM in experiment [1] and 100 to 1000 nM in experiment [2].

For the molecule `C[C@@H]1CN(c2ncnc3c2c2ccc(S(=O)(=O)NC4(C#N)CC4)cc2n3-c2nnc(C(F)F)s2)CCO1` [Example 21, (R)-N-(1-cyanocyclopropyl)-9-(5-(difluoromethyl)-1,3,4-thiadiazol-2-yl)-4-(2-methylmorpholino)-9H-pyrimido[4,5-b]indole-7-sulfonamide], the figures for the IC50 in experiment [1] and in experiment [2] were less than 100 nM and 100 to 1000 nM, respectively.

Turning to `CC(C)C(=O)N1CCN(c2ncnc3c2c2ccc(S(=O)(=O)NC4(C#N)CC4)cc2n3-c2nnc(C(F)F)s2)C[C@H]1C` [Example 60, (R)-N-(1-cyanocyclopropyl)-9-(5-(difluoromethyl)-1,3,4-thiadiazol-2-yl)-4-(4-isobutyryl-3-methylpiperazin-1-yl)-9H-pyrimido[4,5-b]indole-7-sulfonamide], the IC50 in experiment [1] and in experiment [2] was 100 to 1000 nM in each case.

Take `CC(C)C(=O)N1CCN(c2ncnc3c2c2ccc(S(=O)(=O)NC4(C#N)CC4)cc2n3-c2nnc(C(F)F)s2)C[C@@H]1CO` [Example 154, (R)—N-(1-Cyanocyclopropyl)-9-(5-(difluoromethyl)-1,3,4-thiadiazol-2-yl)-4-(3-(hydroxymethyl)-4-isobutyrylpiperazin-1-yl)-9H-pyrimido[4,5-b]indole-7-sulfonamide]: the IC50 in experiment [1] and in experiment [2] was less than 100 nM in each case.

Take `C[C@@H]1CN(c2ncnc3c2c2ccc(S(=O)(=O)NC4(C#N)CC4)cc2n3-c2nnc(C(F)F)s2)C[C@H](C)N1C(=O)C1CC1` [Example 29, N-(1-Cyanocyclopropyl)-4-((3S,5R)-4-(cyclopropanecarbonyl)-3,5-dimethylpiperazin-1-yl)-9-(5-(difluoromethyl)-1,3,4-thiadiazol-2-yl)-9H-pyrimido[4,5-b]indole-7-sulfonamide]: the IC50 in experiment [1] and in experiment [2] was less than 100 nM in each case.

For `C[C@H]1CN(c2ncnc3c2c2ccc(S(=O)(=O)NC4(C)CC4)cc2n3-c2nnc(C(F)F)s2)CCO1` [Example 99, (S)-9-(5-(Difluoromethyl)-1,3,4-thiadiazol-2-yl)-N-(1-methylcyclopropyl)-4-(2-methylmorpholino)-9H-pyrimido[4,5-b]indole-7-sulfonamide], the IC50 in experiment [1] and in experiment [2] was less than 100 nM in each case.

Take `N#CC1(NS(=O)(=O)c2ccc3c4c(N5CCN(C(=O)C6COC6)CC5)ncnc4n(-c4nnc(C(F)F)s4)c3c2)CC1` [Example 66, N-(1-Cyanocyclopropyl)-9-(5-(difluoromethyl)-1,3,4-thiadiazol-2-yl)-4-(4-(oxetane-3-carbonyl)piperazin-1-yl)-9H-pyrimido[4,5-b]indole-7-sulfonamide]: the half-inhibitory concentration (IC50) in experiment [1] and in experiment [2] was less than 100 nM each time.

`CC1(NS(=O)(=O)c2ccc3c4c(C5CCNCC5)ncnc4n(-c4nnc(C(F)F)s4)c3c2)CC1` [Example 93, 9-(5-(Difluoromethyl)-1,3,4-thiadiazol-2-yl)-N-(1-methylcyclopropyl)-4-(piperidin-4-yl)-9H-pyrimido[4,5-b]indole-7-sulfonamide]: the half-inhibitory concentration (IC50) in experiment [1] and in experiment [2] was less than 100 nM each time.

On to `CC1(C(=O)N2CCN(c3ncnc4c3c3ccc(S(=O)(=O)NC5(C#N)CC5)cc3n4-c3nnc(C(F)F)s3)CC2)CCC1` [Example 4, N-(1-Cyanocyclopropyl)-9-(5-(difluoromethyl)-1,3,4-thiadiazol-2-yl)-4-(4-(1-methylcyclobutane-1-carbonyl)piperazin-1-yl)-9H-pyrimido[4,5-b]indole-7-sulfonamide], for which the IC50 was less than 100 nM in experiment [1] and 100 to 1000 nM in experiment [2].

Turning to `N#CC1(NS(=O)(=O)c2cc3c(cc2F)c2c(N4CCC(O)CC4)ncnc2n3-c2nnc(C(F)F)s2)CC1` [Example 55, N-(1-Cyanocyclopropyl)-9-(5-(difluoromethyl)-1,3,4-thiadiazol-2-yl)-6-fluoro-4-(4-hydroxypiperidin-1-yl)-9H-pyrimido[4,5-b]indole-7-sulfonamide], the 50% inhibitory concentration (IC50) in experiment [1] and in experiment [2] was less than 100 nM each time.

For `CC1(O)CCN(c2ncnc3c2c2ccc(S(=O)(=O)NC4(C#N)CC4)cc2n3-c2nnc(C(F)F)s2)CC1` [Example 48, N-(1-Cyanocyclopropyl)-9-(5-(difluoromethyl)-1,3,4-thiadiazol-2-yl)-4-(4-hydroxy-4-methylpiperidin-1-yl)-9H-pyrimido[4,5-b]indole-7-sulfonamide], the 50% inhibitory concentration (IC50) in experiment [1] and in experiment [2] was less than 100 nM in each case.
